Data on 17 compounds can be found in US9145407B2, “Sulfonamide compounds” (Pfizer Limited, priority 2010, dated 2015).

Structures can show the parent of a compound that is named as a salt.

The target of this test is T1, Nav1.7 (or SCN9A) channel (Homo sapiens, UniProt Q15858).
T1 construct: expressed in transfected cells; host or cells: HEK cells, stably transfected, G-418 selected
T1 sequence (Q15858 whole entry): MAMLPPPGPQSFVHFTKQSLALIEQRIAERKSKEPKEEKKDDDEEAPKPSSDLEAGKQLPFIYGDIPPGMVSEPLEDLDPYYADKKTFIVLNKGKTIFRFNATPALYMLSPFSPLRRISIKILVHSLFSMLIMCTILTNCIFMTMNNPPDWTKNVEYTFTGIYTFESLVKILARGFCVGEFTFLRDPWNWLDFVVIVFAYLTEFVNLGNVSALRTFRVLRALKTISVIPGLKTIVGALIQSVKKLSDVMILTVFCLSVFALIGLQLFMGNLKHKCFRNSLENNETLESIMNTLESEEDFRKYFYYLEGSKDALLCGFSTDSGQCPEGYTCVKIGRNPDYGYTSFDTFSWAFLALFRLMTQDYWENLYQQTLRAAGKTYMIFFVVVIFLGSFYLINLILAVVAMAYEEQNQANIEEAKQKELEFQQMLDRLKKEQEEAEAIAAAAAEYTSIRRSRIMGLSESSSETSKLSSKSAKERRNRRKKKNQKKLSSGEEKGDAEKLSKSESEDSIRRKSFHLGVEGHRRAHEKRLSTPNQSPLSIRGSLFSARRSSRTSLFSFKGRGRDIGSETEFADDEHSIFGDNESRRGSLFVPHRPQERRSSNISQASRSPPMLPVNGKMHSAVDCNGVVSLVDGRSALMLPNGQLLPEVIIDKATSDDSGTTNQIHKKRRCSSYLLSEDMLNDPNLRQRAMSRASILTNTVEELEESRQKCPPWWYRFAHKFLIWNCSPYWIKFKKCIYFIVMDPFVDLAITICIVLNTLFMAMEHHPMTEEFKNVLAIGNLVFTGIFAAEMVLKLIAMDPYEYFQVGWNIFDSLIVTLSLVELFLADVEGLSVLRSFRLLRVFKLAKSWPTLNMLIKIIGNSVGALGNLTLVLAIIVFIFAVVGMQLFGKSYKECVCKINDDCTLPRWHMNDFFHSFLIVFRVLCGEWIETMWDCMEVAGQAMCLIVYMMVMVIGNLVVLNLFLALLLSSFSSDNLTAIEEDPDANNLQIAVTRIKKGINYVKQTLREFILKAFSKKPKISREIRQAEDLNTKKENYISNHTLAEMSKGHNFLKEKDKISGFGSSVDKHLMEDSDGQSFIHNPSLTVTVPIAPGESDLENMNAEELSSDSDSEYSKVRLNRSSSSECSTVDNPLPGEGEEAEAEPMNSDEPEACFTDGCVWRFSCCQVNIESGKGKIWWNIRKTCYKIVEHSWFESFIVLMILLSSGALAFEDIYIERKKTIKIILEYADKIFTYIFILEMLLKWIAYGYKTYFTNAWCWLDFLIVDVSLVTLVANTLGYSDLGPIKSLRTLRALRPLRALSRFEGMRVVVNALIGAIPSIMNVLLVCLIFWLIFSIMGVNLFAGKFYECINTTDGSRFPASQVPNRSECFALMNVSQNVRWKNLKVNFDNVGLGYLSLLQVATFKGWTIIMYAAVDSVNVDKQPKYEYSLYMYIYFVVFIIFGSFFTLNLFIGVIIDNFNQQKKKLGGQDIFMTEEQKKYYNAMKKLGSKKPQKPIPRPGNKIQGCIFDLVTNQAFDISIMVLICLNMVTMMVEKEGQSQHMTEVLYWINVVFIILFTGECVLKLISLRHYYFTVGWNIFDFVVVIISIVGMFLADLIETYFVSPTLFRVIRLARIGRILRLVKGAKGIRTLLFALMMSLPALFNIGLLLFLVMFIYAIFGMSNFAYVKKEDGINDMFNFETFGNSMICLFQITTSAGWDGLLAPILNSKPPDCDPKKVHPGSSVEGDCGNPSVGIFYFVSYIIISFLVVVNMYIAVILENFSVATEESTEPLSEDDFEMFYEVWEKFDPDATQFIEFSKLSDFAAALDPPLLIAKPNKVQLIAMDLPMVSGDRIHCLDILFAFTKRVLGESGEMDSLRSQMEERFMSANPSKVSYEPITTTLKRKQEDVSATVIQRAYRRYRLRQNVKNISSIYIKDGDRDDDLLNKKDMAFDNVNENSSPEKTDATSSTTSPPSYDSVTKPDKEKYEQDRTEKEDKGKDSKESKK
The test is described as follows: Nav1.7 (hSCN9A) whole-cell electrophysiology, PatchXpress platform. The format is cell-based. To be noted: HEK cells stably expressing hSCN9A, held at V1/2 of inactivation, calculated from single point % inhibition, read-out: Nav1.7 EIC50 (estimated IC-50). The protocol:
The ability of the compounds of list (I) to block the Nav1.7 (or SCN9A) channel was measured using the assay described below.
Human Embryonic Kidney (HEK) cells were transfected with an hSCN9A construct using lipofectamine reagent (Invitrogen), using standard techniques. Cells stably expressing the hSCN9A constructs were identified by their resistance to G-418 (400 μg/ml). Clones were screened for expression using the whole-cell voltage-clamp technique.
HEK cells stably transfected with hSCN9A were maintained in DMEM medium supplemented with 10% heat-inactivated fetal bovine serum and 400 μg/ml G-418 in an incubator at 37° C. with a humidified atmosphere of 10% CO2. For HTS, cells were harvested from flasks by trypsinization and replated in an appropriate multi-well plate (typically 96 or 384 wells/plate) such that confluence would be achieved within 24 hours of plating. For electrophysiological studies, cells were removed from the culture flask by brief trypsinization and re-plated at low density onto glass cover slips. Cells were typically used for electrophysiological experiments within 24 to 72 hours after plating.
Cover slips containing HEK cells expressing hSCN9A were placed in a bath on the stage of an inverted microscope and perfused (approximately 1 ml/minutes) with extracellular solution of the following composition: 138 mM NaCl, 2 mM CaCl2, 5.4 mM KCl, 1 mM MgCl2, 10 mM glucose, and 10 mM HEPES, pH 7.4, with NaOH. […] The osmolarity of the extracellular and intracellular solutions was 300 mOsm/kg and 295 mOsm/kg, respectively. All recordings were made at room temperature (22-24° C.) using AXOPATCH 200B amplifiers and PCLAMP software (Axon Instruments, Burlingame, Calif.).
hSCN9A currents in HEK cells were measured using the whole-cell configuration of the patch-clamp technique (Hamill et al., 1981). Uncompensated series resistance was typically 2 to 5 mega ohms and >85% series resistance compensation was routinely achieved. As a result, voltage errors were negligible and no correction was applied. Current records were acquired at 20 to 50 KHz and filtered at 5 to 10 KHz.
HEK cells stably transfected with hSCN9A were viewed under Hoffman contrast optics and placed in front of an array of flow pipes emitting either control or compound-containing extracellular solutions. All compounds were dissolved in dimethyl sulfoxide to make 10 mM stock solutions, which were then diluted into extracellular solution to attain the final concentrations desired. […] The voltage-dependence of inactivation was determined by applying a series of depolarizing prepulses (8 sec long in 10 mV increments) from a negative holding potential. The voltage was then immediately stepped to 0 mV to assess the magnitude of the sodium current. Currents elicited at 0 mV were plotted as a function of prepulse potential to allow estimation of the voltage at which 50% of the channels were inactivated (midpoint of inactivation or V1/2). Compounds were tested for their ability to inhibit hSCN9A sodium channels by activating the channel with a 20 msec voltage step to 0 mV following an 8 second conditioning prepulse to the empirically determined V1/2. Compound effect (% inhibition) was determined by difference in current amplitude before and after application of test compounds. For ease of comparison, “estimated IC-50” (EIC50) values were calculated from single point electrophysiology data by the following equation, (tested concentration, uM)×(100−% inhibition/% inhibition). Inhibition values <20% and >80% were excluded from the calculation.
Electrophysiological assays were conducted with PatchXpress 7000 hardware and associated software (Molecular Devices Corp). All assay buffers and solutions were identical to those used in conventional whole-cell voltage clamp experiments described above. hSCN9A cells were grown as above to 50%-80% confluency and harvested by trypsinization. […]
Take `O=S(=O)(Nc1cscn1)c1cc(Cl)c(Oc2ccc(Cl)cc2-c2ccnc(N3CCNCC3)n2)cc1F` [Example 1, 5-Chloro-4-[4-chloro-2-(2-piperazin-1-ylpyrimidin-4-yl)phenoxy]-2-fluoro-N-1,3-thiazol-4-ylbenzenesulfonamide trifluoroacetate]: the IC50 was 6.7 nM.
Next, `O=S(=O)(Nc1nncs1)c1cc(Cl)c(Oc2ccc(Cl)cc2-c2ccnc(N3CCNCC3)n2)cc1F` [Example 2, 5-Chloro-4-[4-chloro-2-(2-piperazin-1-ylpyrimidin-4-yl)phenoxy]-2-fluoro-N-1,3,4-thiadiazol-2-ylbenzenesulfonamide trifluoroacetate]: 5 nM; `O=S(=O)(Nc1cscn1)c1cc(Cl)c(Oc2cc(F)c(C(F)(F)F)cc2-c2ccnnc2)cc1F` [Example 3, 5-Chloro-2-fluoro-4-[5-fluoro-2-pyridazin-4-yl-4-(trifluoromethyl)phenoxy]-N-1,3-thiazol-4-ylbenzenesulfonamide]: 18 nM.
For `O=S(=O)(Nc1cscn1)c1cc(Cl)c(Oc2cc(C(F)(F)F)c(F)cc2-c2ccnnc2)cc1F` [Example 4, 5-Chloro-2-fluoro-4-[4-fluoro-2-pyridazin-4-yl-5-(trifluoromethyl)phenoxy]-N-1,3-thiazol-4-ylbenzenesulfonamide bis(trifluoroacetate)] the value was 27.5 nM; for `Nc1cc(-c2cc(Cl)ccc2Oc2cc(F)c(S(=O)(=O)Nc3ncc(F)cn3)cc2Cl)ccn1` [Example 5, 4-[2-(2-Aminopyridin-4-yl)-4-chlorophenoxy]-5-chloro-2-fluoro-N-(5-fluoropyrimidin-2-yl)benzenesulfonamide dihydrochloride], 11.8 nM; for `Nc1cc(-c2cc(C(F)(F)F)ccc2Oc2cc(F)c(S(=O)(=O)Nc3ncc(F)cn3)cc2Cl)ccn1` [Example 6, 4-[2-(2-Aminopyridin-4-yl)-4-(trifluoromethyl)phenoxy]-5-chloro-2-fluoro-N-(5-fluoropyrimidin-2-yl)benzenesulfonamide 4-methylbenzenesulfonate], 8.5 nM.
Next, `Nc1cc(-c2cc(F)ccc2Oc2cc(F)c(S(=O)(=O)Nc3cscn3)cc2Cl)ccn1` [Example 7, 4-[2-(2-Aminopyridin-4-yl)-4-fluorophenoxy]-5-chloro-2-fluoro-N-1,3-thiazol-4-ylbenzenesulfonamide trifluoroacetate]: 14.7 nM; `Nc1n[nH]cc1-c1cc(OC(F)(F)F)ccc1Oc1cc(F)c(S(=O)(=O)Nc2cscn2)cc1Cl` [Example 8, 4-[2-(3-Amino-1H-pyrazol-4-yl)-4-(trifluoromethoxy)phenoxy]-5-chloro-2-fluoro-N-1,3-thiazol-4-ylbenzenesulfonamide dihydrochloride]: 9.9 nM; `Nc1cc(-c2cc(Cl)ccc2Oc2ccc(S(=O)(=O)Nc3nncs3)cc2Cl)ccn1` [Example 9, 4-[2-(2-Aminopyridin-4-yl)-4-chlorophenoxy]-3-chloro-N-1,3,4-thiadiazol-2-ylbenzenesulfonamide trifluoroacetate]: 24 nM.
As for `Nc1cc(-c2cc(Cl)ccc2Oc2cc(F)c(S(=O)(=O)Nc3cscn3)cc2Cl)ccn1` [Example 10, 4-[2-(2-Aminopyridin-4-yl)-4-chlorophenoxy]-5-chloro-2-fluoro-N-1,3-thiazol-4-ylbenzenesulfonamide trifluoroacetate], the IC50 is 10.8 nM.
In the case of `Nc1[nH]ncc1-c1cc(F)ccc1Oc1cc(F)c(S(=O)(=O)Nc2cscn2)cc1Cl` [Example 11, 4-[2-(5-Amino-1H-pyrazol-4-yl)-4-fluorophenoxy]-5-chloro-2-fluoro-N-1,3-thiazol-4-ylbenzenesulfonamide trifluoroacetate], the IC50 is 16.6 nM.
For `O=S(=O)(Nc1cscn1)c1cc(Cl)c(Oc2ccc(OC(F)(F)F)cc2-c2ccnnc2)cc1F` [Example 12, 5-Chloro-2-fluoro-4-[2-pyridazin-4-yl-4-(trifluoromethoxy)phenoxy]-N-1,3-thiazol-4-ylbenzenesulfonamide trifluoroacetate] the value was 14.6 nM.
`O=S(=O)(Nc1nncs1)c1cc(Cl)c(Oc2ccc(C(F)(F)F)cc2-c2ccnn2C2CNC2)cc1F` [Example 13]: the IC50 is 1.1 nM.
With `CN1CC(n2nccc2-c2cc(C(F)(F)F)ccc2Oc2cc(F)c(S(=O)(=O)Nc3nncs3)cc2Cl)C1` [Example 14, 5-Chloro-2-fluoro-4-{4-trifluoromethyl-2-[1-(1-methylazetidin-3-yl)-1H-pyrazol-5-yl]phenoxy}-N-1,3,4-thiadiazol-ylbenzenesulfonamide], the IC50 is 2.6 nM.
Next, `Cc1nnccc1-c1cc(C(F)(F)F)ccc1Oc1ccc(S(=O)(=O)Nc2ncns2)cc1C#N` [Example 15, 3-Cyano-4-[2-(3-methylpyridazin-4-yl)-4-(trifluoromethyl)phenoxy]-N-1,2,4-thiadiazol-5-ylbenzenesulfonamide]: 11.6 nM; `Cc1cc(S(=O)(=O)Nc2ncns2)ccc1Oc1ccc(C(F)(F)F)cc1-c1ccnnc1` [Example 16, 3-Methyl-4-[2-pyridazin-4-yl-4-(trifluoromethyl)phenoxy]-N-1,2,4-thiadiazol-5-ylbenzenesulfonamide]: 3.2 nM.
For `O=S(=O)(Nc1cscn1)c1cc(F)c(Oc2ccc(Cl)cc2-c2ccnc(N3CCNCC3)n2)cc1F` [Example 17, 4-[4-chloro-2-(2-piperazin-1-ylpyrimidin-4-yl)phenoxy]2,5-difluoro-N-1,3-thiazol-4-ylbenzenesulfonamide trifluoroacetate] the value was 10 nM.
